In this test the test system is 616215-338-R-J1-PDC spheroid with HUVEC/MSC, viability. As to the kind of experiment: Anticancer human tumor 616215-338-R-J1-PDC patient-derived colon adenocarcinoma cell line growth inhibition [TAK]. Particulars: for viability, T/C: stronger effect = lower value. From the text:
Combinatorial screen of targeted agents with TAK-243 and ipatasertib in multi-cell type tumor spheroids
A high-throughput screen of multi-cell type tumor spheroids was designed to identify active combinations of targeted small molecules and TAK-243 or ipatasertib. Complex spheroids include a stromal component modeled by human endothelial cells (HUVEC) and fibroblasts modeled by human mesenchymal stem cells (MSCs). The concentration ranges selected for each drug and investigational agent were based upon clinically achievable concentrations if the clinical Cmax of the agent was known.
Compounds. The drugs and investigational agents: TAK-243 (785004), ipatasertib (767898), everolimus (733504), selumetinib (741078), bortezomib (756655), trametinib (758246), ixazomib (758254), vemurafenib (761431), dabrafenib (764134), sapanisertib (764658), alpelisib (765974), and copanlisib (816437), were obtained from the National Cancer Institute (NCI) Developmental Therapeutics Program Chemical Repository. The FDA-approved anticancer drug set is available from the NCI Developmental Therapeutics Program. […] The stock solutions were prepared in dimethyl sulfoxide (DMSO, Sigma-Aldrich, St. Louis, MO, cat. D2650) at 800-fold the tested concentration and stored at -70 degrees C prior to their use. All drugs and investigational agents were tested over a range starting from a high concentration at or near the clinical Cmax and decreasing in half-log increments. If the clinical Cmax for an agent had not been determined, the highest concentration tested was 10 microM.
NCI60 Cell Culture. NCI60 cell lines were obtained from the NCI Developmental Therapeutics Program Tumor Repository. For each lot of cells, the Repository performed Applied Biosystems AmpFLSTR Identifiler testing with PCR amplification to confirm consistency with the published Identifier STR profile for each cell line. Cells were kept in continuous culture for no more than 20 passages. The optimal seeding densities for each of the cell lines at each time point assessed were determined prior to performing the concentration response studies. Briefly, the NCI60 human tumor lines were grown as monolayers in RPMI 1640 medium supplemented with 10% FBS and 2 mmol/L L-glutamine.
An additional 2 lines were from the NCI60 cell line panel including melanomas, MALME-3M and SK-MEL-2. Pooled donor human umbilical vein endothelial cells (HUVEC, Lonza, cat. CC-2519) and human mesenchymal stem cells (hMSC, Lonza, cat. PT-2501) were purchased from Lonza (Walkersville, MD).
PDMR cell lines were grown in complete medium (DC medium): Dulbecco's modified Eagle's medium (DMEM)/F12 supplemented with 5% fetal bovine serum (FBS), 2 mM L-glutamine, 100 U/mL penicillin and 100 µg/ml streptomycin, 0.4 µg/ml hydrocortisone, 10 ng/ml epidermal growth factor (EGF) recombinant human protein, 24 µg/mL adenine, and 0.1 mg/mL primocin. During culture from frozen stock vials, PDMR cells were cultured in the same medium containing 10 µM Y-27632 (see Table 3). The PDCs were cultured in complete DMEM/F12 media without 10 microM Y-27632 dihydrochloride for at least two passages prior to the screen. The pooled donor HUVEC and hMSC were cultured in endothelial cell growth medium 2 (PromoCell, Heidelberg, Germany, cat. C-22011) and mesenchymal stem cell growth medium 2 (PromoCell, cat. C-28009), respectively. For all experiments, HUVEC and hMSC were used at passages </=5.
For the pre-screen, cell seeding densities were determined from a titration spanning the range from 5,000 to 313 cells per well. The mct-spheroids including 60% malignant cells, 25% HUVEC and 15% MSC dispensed as a mixture into U-bottom Ultra-Low Attachment 384-well plates (Corning, NY)
High-throughput Drug Combination Screening.
Prior to their inoculation into 384-well plates, malignant cells, HUVEC, and hMSC were removed from T flasks using TrypLE express (Thermo Fisher Scientific, cat. 12605036) and harvested by centrifugation for 5 min at 233 x g. […]

The mark [1] stands for this setting: curve of first compound, second compound 0.3 µM.
[2] abbreviates: curve of first compound, second compound 0.949 µM.
The mark [3] stands for this setting: curve of first compound, second compound 3 µM.
Where [4] appears, read: curve of first compound, second compound 9.49 µM.
Setting [5] is: curve of first compound, second compound 30 µM.
[6] abbreviates: second compound 0.3 µM, first compound 0.0316 µM.
The mark [7] stands for this setting: second compound 0.3 µM, first compound 0.1 µM.
Where [8] appears, read: second compound 0.949 µM, first compound 0.0316 µM.
[9] abbreviates: second compound 0.949 µM, first compound 0.1 µM.
Setting [10] is: second compound 3 µM, first compound 0.0316 µM.
Setting [11] is: second compound 3 µM, first compound 0.1 µM.
Setting [12] is: second compound 9.49 µM, first compound 0.0316 µM.
Setting [13] is: second compound 9.49 µM, first compound 0.1 µM.
Setting [14] is: second compound 30 µM, first compound 0.0316 µM.
The mark [15] stands for this setting: second compound 30 µM, first compound 0.1 µM.

Where “and” joins values, the source holds several entries; their conditions need not be identical. Identical values can stand only once. Some results are limits rather than exact numbers.
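Note: spheroids exposed to drugs for 7 days before readout.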

The term IC50 denotes the concentration that gives 50% inhibition. One may read the viability, T/C as the result in the treated group divided by that in the control group, in per cent. As to `CC(C)(C)c1nc(-c2cccc(NS(=O)(=O)c3c(F)cccc3F)c2F)c(-c2ccnc(N)n2)s1` + CC(C)NCC(C(=O)N1CCN(c2ncnc3c2C(C)CC3O)CC1)c1ccc(Cl)cc1, the IC50 is, setting by setting: under setting [1], 5380 nM; under setting [2], 834 nM; under setting [3], 182 nM; under setting [4], below 31.6 nM; under setting [5], below 31.6 nM. The viability, T/C by setting is: under setting [6], 130%; under setting [7], 140%; (second compound 0.3 µM, first compound 0.316 µM) 156%; (second compound 0.3 µM, first compound 1 µM) 138%; (second compound 0.3 µM, first compound 3.16 µM) 77.8%; (second compound 0.3 µM, first compound 10 µM) 17.5%. The viability, T/C was 141% under setting [8]; 132% under setting [9]; 87% (second compound 0.949 µM, first compound 0.316 µM); 43.1% (second compound 0.949 µM, first compound 1 µM); 22% (second compound 0.949 µM, first compound 3.16 µM); 10.1% (second compound 0.949 µM, first compound 10 µM). The viability, T/C runs as follows: under setting [10], 63.5%; under setting [11], 69%; (second compound 3 µM, first compound 0.316 µM) 35.1%; (second compound 3 µM, first compound 1 µM) 16.8%; (second compound 3 µM, first compound 3.16 µM) 10.3%; (second compound 3 µM, first compound 10 µM) 7.4%. The viability, T/C runs as follows: under setting [12], 21.2%; under setting [13], 19.9%; (second compound 9.49 µM, first compound 0.316 µM) 15.2%; (second compound 9.49 µM, first compound 1 µM) 8.91%; (second compound 9.49 µM, first compound 3.16 µM) 5.79%; (second compound 9.49 µM, first compound 10 µM) 6.27%. The viability, T/C is, setting by setting: under setting [14], 8.84%; under setting [15], 10.3%; (second compound 30 µM, first compound 0.316 µM) 7.86%; (second compound 30 µM, first compound 1 µM) 6.37%; (second compound 30 µM, first compound 3.16 µM) 3.65%; (second compound 30 µM, first compound 10 µM) 3.34%.

Regarding `CCCS(=O)(=O)Nc1ccc(F)c(C(=O)c2c[nH]c3ncc(-c4ccc(Cl)cc4)cc23)c1F`, the viability, T/C by setting is: (compound 0.316 µM) 110% and 87.2%; (compound 1 µM) 99.9% and 99.5%; (compound 3.16 µM) 90.2% and 81%; (compound 10 µM) 16.4% and 24.1%; (compound 31.6 µM) 106% and 4.96%; (compound 100 µM) 64.9% and 98.7%.

Regarding `COc1c(OCCCN2CCOCC2)ccc2c3n(c(=NC(=O)c4cnc(N)nc4)nc12)CCN3`, the viability, T/C reads like this: (compound 0.00316 µM) 108% and 106%; (compound 0.01 µM) 108% and 113%; (compound 0.0316 µM) 117% and 114%; (compound 0.1 µM) 57.7% and 54.2%; (compound 0.316 µM) 27.8% and 31.5%; (compound 1 µM) 17.4% and 16.5%. Moreover, the IC50 (curve of compound) is 129 nM and 118 nM.

Consider `CC(C)n1nc(-c2ccc3oc(N)nc3c2)c2c(N)ncnc21` + CC(C)NCC(C(=O)N1CCN(c2ncnc3c2C(C)CC3O)CC1)c1ccc(Cl)cc1, for which the 50% inhibitory concentration (IC50) under setting [1] was determined as 85.8 nM; the IC50 under setting [2] worked out at 18.3 nM; the half-inhibitory concentration (IC50) under setting [3] was 2.73 nM; the concentration for half-maximal inhibition (IC50) under setting [4] is below 0.316 nM; the IC50 under setting [5] was below 0.316 nM. The viability, T/C was 93.5% (second compound 0.3 µM, first compound 0.000316 µM); 99.9% (second compound 0.3 µM, first compound 0.001 µM); 107% (second compound 0.3 µM, first compound 0.00316 µM); 130% (second compound 0.3 µM, first compound 0.01 µM); 112% under setting [6]; 41.2% under setting [7]. Also, the viability, T/C runs as follows: (second compound 0.949 µM, first compound 0.000316 µM) 112%; (second compound 0.949 µM, first compound 0.001 µM) 119%; (second compound 0.949 µM, first compound 0.00316 µM) 109%; (second compound 0.949 µM, first compound 0.01 µM) 66.6%; under setting [8], 36.7%; under setting [9], 22.3%. Besides, the viability, T/C reads like this: (second compound 3 µM, first compound 0.000316 µM) 77.2%; (second compound 3 µM, first compound 0.001 µM) 74.2%; (second compound 3 µM, first compound 0.00316 µM) 43.5%; (second compound 3 µM, first compound 0.01 µM) 28.2%; under setting [10], 17.5%; under setting [11], 13.7%. In addition, the viability, T/C runs as follows: (second compound 9.49 µM, first compound 0.000316 µM) 28.6%; (second compound 9.49 µM, first compound 0.001 µM) 25.8%; (second compound 9.49 µM, first compound 0.00316 µM) 19%; (second compound 9.49 µM, first compound 0.01 µM) 13.1%; under setting [12], 11%; under setting [13], 10.2%. In addition, the viability, T/C is 12.6% (second compound 30 µM, first compound 0.000316 µM); 11.5% (second compound 30 µM, first compound 0.001 µM); 11.4% (second compound 30 µM, first compound 0.00316 µM); 7.84% (second compound 30 µM, first compound 0.01 µM); 7.49% under setting [14]; 7.08% under setting [15].

(Values after PubChem BioAssay AID2060352 (Molecular Pharmacology Branch, DTP, NCI, 2025).)
